Test systems include La Crosse virus (LACV); dengue virus; Andes virus.
What all share (experiment): microbe, parasite or virus in culture
What all share (type): cell-based

For a further assay, the system named is influenza virus. The conditions noted are these: unidentified influenza virus.
For another assay, the system named is vaccinia virus. The conditions noted are these: read-out: Avg Activity (VV).
Another assay has as its system Chlamydophila caviae. The conditions noted are these: read-out: Avg Activity (C. Caviae).
The subject of the next assay is Ebola virus. The conditions noted are these: Zaire ebolavirus.
A further assay has as its system Tacaribe virus. The conditions noted are these: Mammarenavirus tacaribeense, Vero.
Assay [1] concerns respiratory syncytial virus. The conditions noted are these: human respiratory syncytial virus, read-out: Misc Virus Activity: Respiratory Syncytial.
Another assay has as its system Sindbis virus. The conditions noted are these: read-out: Misc Virus Activity: Sindbis.
For another assay, the system named is HIV-1. The conditions noted are these: Human immunodeficiency virus 1, read-out: Misc Virus Activity: HIV-1.
Assay [2] deals with Rift Valley fever virus (RVFV) vaccine strain MP-12. The conditions noted are these: Vero.
Assay [3] has as its system encephalomyocarditis virus. The conditions noted are these: Cardiovirus A, read-out: Misc Virus Activity: Encephalomyocarditis.
The subject of assay [4] is lymphocytic choriomeningitis virus. The conditions noted are these: for EC50: Mammarenavirus choriomeningitidis, read-out: Misc Virus Activity: Lymphocytic Choriomeningitis.
[5] abbreviates: A549, read-out: Misc Activity: Influenza.
The mark [6] stands for this setting: La Crosse virus, Vero, read-out: Avg Activity (LACV).
Where [7] appears, read: read-out: Misc Activity: Dengue.
Where [8] appears, read: read-out: Misc Activity: Tacaribe.
[9] abbreviates: read-out: Misc Virus Activity: Dengue.
The mark [10] stands for this setting: read-out: Misc Virus Activity: Ebola.
The mark [11] stands for this setting: A549, read-out: Misc Virus Activity: Influenza.
Setting [12] is: read-out: Misc Virus Activity: Tacaribe.
Setting [13] is: read-out: Misc Virus Activity: Rift Valley Fever.

Structures can show the parent of a compound that is named as a salt. Where two headings read alike, the source gives them in different places.

Experimental findings from patent US9566254B2, “Inhibitors and methods of inhibiting bacterial and viral pathogens” (priority 2010, dated 2017) are described below.

On to `COc1cc(NC(=S)NC(=O)c2ccc(C(C)(C)C)cc2)ccc1N` [Compound 1, N-[(4-amino-3-methoxy-phenyl)carbamothioyl]-4-tert-butyl-benzamide], for which the EC50 is < 1000 nM in the assay on influenza virus (setting [5]); < 1000 nM with La Crosse virus (LACV) (setting [6]); < 1000 nM with vaccinia virus (Orthopoxvirus vaccinia); < 1000 nM in the assay on Chlamydophila caviae (Chlamydia caviae, Vero).
Consider `CC(C)(C)c1ccc(C(=O)NC(=S)Nc2ccc(NC(=O)c3ccccc3Cl)c(N)c2)cc1` [Compound 6, N-[2-amino-4-[(4-tert-butylbenzoyl)-carbamothioylamino]-phenyl]-2-chloro-benzamide hydrochloride], for which the EC50 with dengue virus (setting [7]) was < 1000 nM; in the assay on Ebola virus (read-out: Misc Activity: Ebola), 1000 to 10000 nM; in the assay with influenza virus (setting [5]) it was < 1000 nM; with Tacaribe virus (setting [8]) it was < 1000 nM; with La Crosse virus (LACV) (setting [6]), < 1000 nM; in the assay on vaccinia virus (Orthopoxvirus vaccinia) it was < 1000 nM. Moreover, the EC50 in the assay on Chlamydophila caviae (Chlamydia caviae, Vero) was < 1000 nM.
In the case of `Cc1ccc(Cl)c(NC(=S)NC(=O)c2ccc(C(C)(C)C)cc2)c1` [Compound 11, 4-tert-butyl-N-[(2-chloro-5-methyl-phenyl)-carbamothioyl]benzamide], the EC50 was < 1000 nM with dengue virus (setting [7]); 1000 to 10000 nM with influenza virus (setting [5]); 1000 to 10000 nM in the assay on La Crosse virus (LACV) (setting [6]); < 1000 nM with vaccinia virus (Orthopoxvirus vaccinia); < 1000 nM with Chlamydophila caviae (Chlamydia caviae, Vero).
In the case of `CC(C)(C)c1ccc(C(=O)NC(=S)Nc2cccc(N)c2)cc1` [Compound 17, N-[(3-aminophenyl)-carbamothioyl]-4-tert-butyl-benzamide], the EC50 in the assay on dengue virus (setting [7]) was < 1000 nM; in the assay on influenza virus (setting [5]), < 1000 nM; in the assay with Tacaribe virus (setting [8]), < 1000 nM; in the assay on La Crosse virus (LACV) (setting [6]), 1000 to 10000 nM; in the assay on vaccinia virus (Orthopoxvirus vaccinia) it was 1000 to 10000 nM; in the assay with Chlamydophila caviae (Chlamydia caviae, Vero), < 1000 nM.
Take `COc1cc(NC(=S)NC(=O)c2ccc(C(C)(C)C)cc2)ccc1N` [Compound 18, N-[(4-amino-3-methoxy-phenyl)carbamothioyl]-4-tert-butyl-benzamide hydrochloride]: the EC50 with dengue virus (setting [7]) was < 1000 nM; in the assay with Tacaribe virus (setting [8]) it was < 1000 nM; with La Crosse virus (LACV) (read-out: Avg Activity (LACV), hydrochloride), 1000 to 10000 nM; in the assay on vaccinia virus (hydrochloride) it was 1000 to 10000 nM.
For the molecule `COc1cc(NC(=S)NC(=O)c2ccc(C(C)(C)C)cc2)ccc1NC(C)=O` [Compound 20, N-[(4-acetamido-3-methoxy-phenyl)-carbamothioyl]-4-tert-butyl-benzamide], the EC50 with dengue virus (setting [7]) was < 1000 nM; with influenza virus (setting [5]), < 1000 nM; in the assay with Tacaribe virus (setting [8]) it was < 1000 nM; with La Crosse virus (LACV) (setting [6]), 1000 to 10000 nM; in the assay on vaccinia virus (Orthopoxvirus vaccinia), 1000 to 10000 nM; with Chlamydophila caviae (Chlamydia caviae, Vero), < 1000 nM.
Regarding `CNc1ccc(NC(=S)NC(=O)c2ccc(C(C)(C)C)cc2)cc1` [Compound 21, 4-tert-butyl-N-[[4-(methylamino)phenyl]-carbamothioyl]benzamide hydrochloride], the EC50 is < 1000 nM in the assay on dengue virus (setting [7]); < 1000 nM in the assay on influenza virus (setting [5]); < 1000 nM with Tacaribe virus (setting [8]); 1000 to 10000 nM in the assay with La Crosse virus (LACV) (setting [6]); 1000 to 10000 nM in the assay on vaccinia virus (Orthopoxvirus vaccinia); < 1000 nM in the assay on Chlamydophila caviae (Chlamydia caviae, Vero).
As for `COc1cc(NC(=S)NC(=O)c2ccc(C(C)(C)C)cc2)ccc1NC(=O)c1ccccc1Cl` [Compound 39], the EC50 (in the assay on dengue virus (setting [9]); in the assay with Ebola virus (setting [10]); in the assay on influenza virus (setting [11]); in assay [1]; in the assay with Tacaribe virus (setting [12]); with La Crosse virus (LACV) (setting [6])) was < 1000 nM in each case. Also, the EC50 was < 1000 nM in the assay on Sindbis virus; < 1000 nM in the assay on vaccinia virus (Orthopoxvirus vaccinia); < 1000 nM in the assay on Chlamydophila caviae (Chlamydia caviae, Vero); < 1000 nM with HIV-1; < 1000 nM in the assay on Andes virus (Orthohantavirus andesense, read-out: Misc Virus Activity: Andes); < 1000 nM in [2] (setting [13]). The EC50 in assay [3] and in [4] was < 1000 nM throughout. For the same molecule, the “Andes: reduces yield” value in the assay on Andes virus is on record as “yield >100-fold)”. In addition, the “Lymphocytic Choriomeningitis: reduces yield” value in assay [4] is “(reduces yield >10^4-fold)”.
On to `CC(C)(C)c1ccc(C(=O)NC(=S)Nc2ccccc2Cl)cc1` [Compound 40, 4-tert-butyl-N-[(2-chlorophenyl)carbamothioyl]-benzamide], for which the EC50 is < 1000 nM in the assay with dengue virus (setting [9]); 10000 to 25000 nM in the assay with Ebola virus (setting [10]); < 1000 nM with influenza virus (setting [11]); < 1000 nM in the assay on Tacaribe virus (setting [12]); < 1000 nM in the assay with La Crosse virus (LACV) (setting [6]); < 1000 nM in the assay on vaccinia virus (Orthopoxvirus vaccinia). Further, the EC50 was < 1000 nM with Chlamydophila caviae (Chlamydia caviae, Vero); < 1000 nM in [2] (setting [13]); < 1000 nM in assay [4]. In addition, in assay [4], the “Lymphocytic Choriomeningitis: reduces yield” value was “(reduces yield >10^4-fold)”.
Turning to `CC(C)(C)c1ccc(C(=O)NC(=S)Nc2ccc(Nc3ccccc3)cc2)cc1` [Compound 45, N-[(4-anilinophenyl)-carbamothioyl]-4-tert-butyl-benzamide], the EC50 with dengue virus (setting [9]) is < 1000 nM; in the assay on influenza virus (setting [11]), < 1000 nM; in the assay on Tacaribe virus (setting [12]) it was < 1000 nM; in the assay on La Crosse virus (LACV) (setting [6]), 1000 to 10000 nM; with vaccinia virus (Orthopoxvirus vaccinia), < 1000 nM; in the assay with Chlamydophila caviae (Chlamydia caviae, Vero), < 1000 nM.
As to `Cc1ccc(NC(=S)NC(=O)c2ccc(C(C)(C)C)cc2)c(C)c1` [Compound 48, 4-tert-butyl-N-[(2,4-dimethylphenyl)-carbamothioyl]benzamide], the EC50 with dengue virus (setting [9]) is < 1000 nM; in the assay with influenza virus (setting [11]), 1000 to 10000 nM; in the assay on Tacaribe virus (setting [12]), < 1000 nM; in the assay on La Crosse virus (LACV) (setting [6]), < 1000 nM; with vaccinia virus (Orthopoxvirus vaccinia) it was 1000 to 10000 nM; in the assay with Chlamydophila caviae (Chlamydia caviae, Vero), < 1000 nM.
In the case of `CN(C)c1ccc(NC(=S)NC(=O)c2ccc(C(C)(C)C)cc2)cc1` [Compound 49, 4-tert-butyl-N-[(4-dimethylaminophenyl)-carbamothioyl]benzamide], the EC50 in the assay on dengue virus (setting [9]) is < 1000 nM; in the assay on influenza virus (setting [11]), < 1000 nM; with Tacaribe virus (setting [12]), < 1000 nM; with La Crosse virus (LACV) (setting [6]), < 1000 nM; with vaccinia virus (Orthopoxvirus vaccinia) it was 1000 to 10000 nM; with Chlamydophila caviae (Chlamydia caviae, Vero) it was 1000 to 10000 nM.
Regarding `Cc1ccc(C)c(NC(=S)NC(=O)c2ccc(C(C)(C)C)cc2)c1` [Compound 67, 4-tert-butyl-N-[(2,5-dimethylphenyl)-carbamothioyl]benzamide], the EC50 with La Crosse virus (LACV) (setting [6]) is > 25000 nM; in the assay with vaccinia virus (Orthopoxvirus vaccinia), 1000 to 10000 nM; in the assay on Chlamydophila caviae (Chlamydia caviae, Vero) it was < 1000 nM.
In the case of `COc1ccc(NC(=S)NC(=O)c2ccc(C(C)(C)C)cc2)cc1` [Compound 68, 4-tert-butyl-N-[(4-methoxyphenyl)-carbamothioyl]benzamide], the EC50 with La Crosse virus (LACV) (setting [6]) was > 25000 nM; with vaccinia virus (Orthopoxvirus vaccinia) it was 1000 to 10000 nM; in the assay on Chlamydophila caviae (Chlamydia caviae, Vero) it was 1000 to 10000 nM.
In the case of `CC(C)(C)c1ccc(C(=O)NC(=S)Nc2ccc([N+](=O)[O-])cc2)cc1` [Compound 69, 4-tert-butyl-N-[(4-nitrophenyl)-carbamothioyl]benzamide], the EC50 is > 25000 nM with La Crosse virus (LACV) (setting [6]); 1000 to 10000 nM in the assay with vaccinia virus (Orthopoxvirus vaccinia); > 25000 nM with Chlamydophila caviae (Chlamydia caviae, Vero).
For `Cc1cccc(C)c1NC(=S)NC(=O)c1ccc(C(C)(C)C)cc1` [Compound 71, 4-tert-butyl-N-[(2,6-dimethylphenyl)-carbamothioyl]benzamide], the EC50 in the assay on La Crosse virus (LACV) (setting [6]) is > 25000 nM; with vaccinia virus (Orthopoxvirus vaccinia), 10000 to 25000 nM; in the assay on Chlamydophila caviae (Chlamydia caviae, Vero) it was < 1000 nM.
Take `Cc1sc(NC(=S)NC(=O)c2ccc(C(C)(C)C)cc2)c(C#N)c1C` [Compound 72, 4-tert-butyl-N-[(3-cyano-4,5-dimethyl-2-thienyl)-carbamothioyl]benzamide]: the EC50 in the assay on La Crosse virus (LACV) (setting [6]) was > 25000 nM; in the assay on vaccinia virus (Orthopoxvirus vaccinia), 10000 to 25000 nM; with Chlamydophila caviae (Chlamydia caviae, Vero), 10000 to 25000 nM.
Take `CCNC(=S)NC(=O)c1ccc(C(C)(C)C)cc1` [Compound 73, 4-tert-butyl-N-(ethylcarbamothioyl)-benzamide]: the EC50 in the assay with La Crosse virus (LACV) (setting [6]) is > 25000 nM; with vaccinia virus (Orthopoxvirus vaccinia), 10000 to 25000 nM; in the assay on Chlamydophila caviae (Chlamydia caviae, Vero) it was > 25000 nM.
On to `NC(=O)c1ncn([C@@H]2O[C@H](CO)[C@@H](O)[C@H]2O)n1` [ribavirin, reference compound], for which the EC50 in the assay with La Crosse virus (LACV) (La Crosse virus, Vero, read-out: EC50 value for LACV) is 750000 nM; in [2] (read-out: EC50 value for RVFV) it was 300000 nM.
Turning to “N-[3-[(4-tert-butylbenzoyl)-carbamothioylamino]phenyl]-2-chloro-benzamide [Compound 74]”, the EC50 in the assay on La Crosse virus (LACV) (read-out: Avg Activity (LACV)) is 1000 to 10000 nM; in the assay with vaccinia virus, > 25000 nM; in the assay on Chlamydophila caviae, > 25000 nM.
